Measured values from patent publication US20220339143A1, “TAK-925 FOR USE IN TREATING NARCOLEPSY” (Takeda Pharmaceutical Company Limited, priority 2019, published 2022).
Values joined by “and” are separate entries in the source; they are usually repeats but may differ in a detail not shown here. Equal entries are not always repeated.

Experiments:
Assay type in all cases: in vivo, human
[1] = test system: patients with narcolepsy type 1 (NT1); assay: Sleep latency in Maintenance of Wakefulness Test (MWT), single dose (Cohorts 5, 6, 7); conditions: for average sleep latency in MWT, mean (SD): NT1 (placebo 2.88); for Average Sleep Latency in MWT: Cohort 5, 6, 7
Description: In Part 2, NT1 patients received a single dose of Compound A or placebo administered as a continuous IV infusion over a 9-hour period during the day. A 40-minute Maintenance of Wakefulness Test (MWT) was conducted 4 times during the continuous IV infusion to assess effects on wakefulness in soporific conditions at 2, 4, 6 and 8 hours from start of infusion. Three cohorts of patients were enrolled (n=14 total).
The average sleep latency in the Maintenance Wakefulness Test (MWT)
Sleep related parameters in the MWT (sleep latency (SL) in each session).
The pharmacodynamics (PD) for sleepiness is shown in FIG. 8, which depicts the average post-dose MWT sleep latency for NT1 patients overall all dose time points. Due to the crossover design, some subjects in the placebo group were the same as some subjects in 5 mg-44.8 mg group.

[2] = test system: patients with NT1; assay: Sleep latency in MWT, multiple dose (Cohorts B1, B2)
Description: The purpose of the study was to evaluate the safety, tolerability, pharmacokinetics and pharmacodynamics of Compound A after multiple IV administration in patients with NT1. NT1 patients were evaluated in Cohort B1 and B2 (Table 19). Compound A or placebo were administered via IV infusion over 9 hours once daily for 7 days. A total of 13 patients with NT1 were treated with Compound A or placebo (4, 4, and 5 subjects in the placebo, Compound A 11 mg, and Compound A 44 mg groups, respectively). In this part, potential efficacy of Compound A was evaluated with MWT, ESS, KSS, night-time PSG (NPSG), cataplexy frequency assessment, and PGI-C as an exploratory PD assessment.
An overview of study schedule and PD testing in NT1 Patients is illustrated in FIG. 11. After screening, patients eligible for these parts had to discontinue any medication for narcolepsy including medications used for EDS or cataplexy. The medications had to be stopped for a minimum of 7 days or at least 5 half-lives of each medication, whichever was longer, before the first day of dosing (Day 1). As for a subject having possibility of getting injured due to severe cataplexy, the subject might have been confined to the site before Day −2 at a discretion of the investigator. In all cohorts of these parts, subjects underwent NPSG on Day −2 and baseline MWT sessions 4 times on Day −1 (at around 10:00, 12:00, 14:00, and 16:00). Study drug dosing via IV infusion was started at around 08:00. MWT was conducted on Day 1 at around 10:00, 12:00, 14:00, and 16:00. Subjects were allowed to take a nap on the days with no MWT assessment. At night of Day 6, the subjects underwent NPSG once again to evaluate the effect of multiple daytime dosing on night-time sleep structure. On Day 7, the subjects underwent MWT at the same hours as on Day −1. Cataplexy was to be evaluated by using the self-recorded sleep diary. The subjects were discharged from the study site on Day 8.
The MWT is a validated objective measure that evaluates a person's ability to remain awake under soporific conditions for a defined period of time. As there is no biological measure of wakefulness, this was measured indirectly by the inability or delayed tendency to fall asleep. This tendency to fall asleep was measured via EEG-derived sleep latency in MWT.
On Day −1, Day 1 and Day 7, 40-minute session (1 session) of MWTs was performed 4 times (approximately at 10:00, 12:00, 14:00, and 16:00) per day. Sleep latency of each session was recorded. Subjects were required to stay awake during an interval between sessions.

[3] = test system: patients with narcolepsy type 1 (NT1); assay: Number of cataplexy episodes (daily diary), single dose (Cohorts 5, 6, 7); conditions: for Number of Events of Cataplexy per Week in one particular patient: cohort 7
Excerpt: Assessment of cataplexy and other sleep manifestations using a daily diary to collect episodes of cataplexy and sleep symptoms associated with NT1.

SMILES: COC(=O)N1CCC[C@H](NS(C)(=O)=O)[C@@H]1CO[C@H]1CC[C@@H](c2ccccc2)CC1 [Compound A, methyl (2R,3S)-3-((methylsulfonyl)amino)-2-(((cis-4-phenylcyclohexyl)oxy)methyl)piperidine-1-carboxylate]
- average sleep latency in MWT, LS mean difference (95% CI) minus placebo ([1]; 5 mg): 18.792 (11.987, 25.596) min
- average sleep latency in MWT, mean (SD) ([1]; 5 mg single 9 h IV infusion): 22.38 (10.125) min and 22.4 min and 22.38 min
- Sleep latency in MWT by visit, Mean ([1]; 5 mg, 10:00 (infusion start 7:45)): 25.25 min
- Sleep latency in MWT by visit, Mean ([1]; 5 mg, 12:00): 29.75 min
- Sleep latency in MWT by visit, Mean ([1]; 5 mg, 14:00): 8.92 min
- Sleep latency in MWT by visit, Mean ([1]; 5 mg, 16:00): 25.58 min
- average sleep latency in MWT, LS mean difference (95% CI) minus placebo ([1]; 11.2 mg): 36.063 (27.729, 44.396) min
- subjects achieving the maximum sleep latency (40 min) in MWT ([1]; 11.2 mg): 3 out of 4
- average sleep latency in MWT, mean (SD) ([1]; 11.2 mg single 9 h IV infusion): 37.59 (4.813) min and 37.6 min and 37.59 min
- Sleep latency in MWT by visit, Mean ([1]; 11.2 mg, 10:00): 37.38 min
- Sleep latency in MWT by visit, Mean ([1]; 11.2 mg, 14:00): 33.00 min
- Sleep latency in MWT by visit, Mean ([1]; 11.2 mg, 16:00): 40.00 min
- average sleep latency in MWT, LS mean difference (95% CI) minus placebo ([1]; 44.8 mg): 36.662 (27.344, 45.979) min
- average sleep latency in MWT, mean (SD) ([1]; 44.8 mg single 9 h IV infusion): 40.00 (0.000) min and 40 min
- subjects achieving the maximum sleep latency (40 min) in MWT ([1]; 44.8 mg, all four 40-min trials): 4 out of 4
- Sleep latency in MWT by visit, Mean ([1]; 44.8 mg, 10:00): 40.00 min
- Sleep latency in MWT by visit, Mean ([1]; 44.8 mg, 12:00): 40.00 min
- Sleep latency in MWT by visit, Mean ([1]; 44.8 mg, 14:00): 40.00 min
- Sleep latency in MWT by visit, Mean ([1]; 44.8 mg, 16:00): 40.00 min
- effect on wakefulness as measured by time to sleep onset on the MWT ([1]; 5, 11.2, 44.8 mg, NT1 patients): clear dose dependent effect
- Average Sleep Latency in MWT ([1]; Cmpd A 5 mg, Mean): 22.38 min
- Average Sleep Latency in MWT ([1]; Cmpd A 5 mg, Median): 21.69 min
- Average Sleep Latency in MWT ([1]; Cmpd A 11.2 mg, Mean): 37.59 min
- Average Sleep Latency in MWT ([1]; Cmpd A 11.2 mg, Median): 40.00 min
- Average Sleep Latency in MWT ([1]; Cmpd A 44.8 mg, Mean): 40.00 min
- Average Sleep Latency in MWT ([1]; Cmpd A 44.8 mg, Median): 40.00 min
- mean sleep latency in the lunch session (14:00) ([1]; higher dose groups of Compound A): over 30 min
- mean sleep latency in MWT ([2]; 11 mg, Day 1 (placebo 1.31)): 37.16 min
- mean change from baseline in average sleep latency in MWT ([2]; 11 mg, Day 1 (placebo −0.66)): 35.13 min
- mean sleep latency in MWT ([2]; 11 mg, Day 7 (placebo 1.59)): 23.03 min
- mean change from baseline in average sleep latency in MWT ([2]; 11 mg, Day 7 (placebo −0.38)): 21.00 min
- maximum sleep latency achieved in MWT ([2]; 11 mg, at 4 hours on Day 1): 40 min
- mean sleep latency in MWT ([2]; 44 mg, Day 1 (placebo 1.31)): 40.00 min
- mean change from baseline in average sleep latency in MWT ([2]; 44 mg, Day 1 (placebo −0.66)): 34.19 min
- mean sleep latency in MWT ([2]; 44 mg, Day 7 (placebo 1.59)): 40.00 min
- mean change from baseline in average sleep latency in MWT ([2]; 44 mg, Day 7 (placebo −0.38)): 34.78 min
- maximum sleep latency achieved in MWT ([2]; 44 mg, all time points on both Day 1 and Day 7): 40 min
- Subjects without any Events (cataplexy) ([3]; 5 mg (N = 6)): 3 (50.0) N (%)
- Number of Times of a Cataplexy Episode, Mean (SD) ([3]; 5 mg, After End of Infusion): 10.2 (23.45)
- Number of Times of a Cataplexy Episode, Median ([3]; 5 mg, After End of Infusion): 0.5
- Number of Times of a Cataplexy Episode, Mean (SD) ([3]; 5 mg, During Infusion): 0.0 (0.00)
- Number of Times of a Cataplexy Episode, Median ([3]; 5 mg, During Infusion): 0.0
- Subjects without any Events (cataplexy) ([3]; 11.2 mg (N = 4)): 3 (75.0) N (%)
- Number of Times of a Cataplexy Episode, Mean (SD) ([3]; 11.2 mg, After End of Infusion): 0.0 (0.00)
- Number of Times of a Cataplexy Episode, Median ([3]; 11.2 mg, After End of Infusion): 0.0
- Number of Times of a Cataplexy Episode, Mean (SD) ([3]; 11.2 mg, During Infusion): 0.8 (1.50)
- Number of Times of a Cataplexy Episode, Median ([3]; 11.2 mg, During Infusion): 0.0
- Subjects without any Events (cataplexy) ([3]; 44.8 mg (N = 4)): 3 (75.0) N (%)
- Number of Times of a Cataplexy Episode, Mean (SD) ([3]; 44.8 mg, After End of Infusion): 0.8 (1.50)
- Number of Times of a Cataplexy Episode, Median ([3]; 44.8 mg, After End of Infusion): 0.0
- Number of Times of a Cataplexy Episode, Mean (SD) ([3]; 44.8 mg, During Infusion): 0.0 (0.00)
- Number of Times of a Cataplexy Episode, Median ([3]; 44.8 mg, During Infusion): 0.0
- Number of Events of Cataplexy per Week in one particular patient ([3]; During Cmpd A infusion (baseline 808, during placebo infusion 83)): 0
- Number of Events of Cataplexy per Week in one particular patient ([3]; Post Cmpd A infusion): 58
- frequency of cataplexy compared to baseline frequency in one patient of cohort 7 ([3]; during the infusion of Compound A): remarkably improved
